For series [1], the system named is Mus musculus. Put plainly: Acute toxicity in ddY mouse at 2 mg/mouse, ip assessed as death after 12 hrs. The series is classed as organism-based. As to conditions: in vivo.
Series [2] deals with Mus musculus. Put plainly: Acute toxicity in ddY mouse at 38 mg/mouse, ip assessed as death after 12 hrs. The series is classed as organism-based. As to conditions: in vivo.

Here are results for two compounds from ChEMBL document CHEMBL1155752, “Isolation and structure of korolkoside, a bis-iridoid glucoside from Lonicera korolkovii” (J Nat Prod, 2001).

Each structure is given as a SMILES string.

As to `C=C[C@H]1[C@H](O[C@@H]2O[C@H](CO)[C@@H](O)[C@H](O)[C@H]2O)OC=C(C(=O)OC)[C@H]1C[C@@H]1OC[C@H]2O[C@@H](O[C@@H]3OC=C(C(=O)OC)[C@@H](CC(OC)OC)[C@H]3C=C)[C@H](O)[C@@H](O)[C@@H]2O1` [KOROLKOSIDE], in the series on Mus musculus [1], the Activity result is on record as “Non-toxic”.

Regarding `C=C[C@H]1[C@H](O[C@@H]2O[C@H](CO)[C@@H](O)[C@H](O)[C@H]2O)OC=C(C(=O)OC)[C@H]1CC(OC)OC` [SECOLOGANIN DIMETHYL ACETAL], the Activity result with Mus musculus [2] is “Non-toxic”.
